The numbers were not newly measured in patent US12479917B2, “Methods of treating NSCLC comprising administering platinum doublet chemotherapy followed by an anti-PD-1 antibody and an anti-CTLA-4 antibody” (priority 2018, dated 2025), which cites them from elsewhere.

For one data set, the system named is advanced NSCLC. The following applies: second line (2 L).
The conditions of data set [1]: monotherapy, every two weeks; MTD not reached.

Turning to `Nc1nc2[nH]cc(CCc3ccc(C(=O)N[C@@H](CCC(=O)O)C(=O)O)cc3)c2c(=O)[nH]1` [Pemetrexed], in the data set with advanced NSCLC, the “efficacy outcomes compared with docetaxel” value was “clinically equivalent efficacy outcomes” and the “side effects compared with docetaxel” value is recorded as “significantly fewer side effects”. Turning to nivolumab, in data set [1], the “maximum tolerated dose (MTD)” value is greater than 10 mg/kg.
